ChEMBL document CHEMBL1201862, “PubChem BioAssay data set” (2004)
Active and inactive are the calls of the source.

Legend:
H9c2 = experiment: cells; assay type: functional, cell-based; conditions: Rattus norvegicus, H9c2, Myocardium;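 note: confirmatory concentration-response retest of ultra-high-throughput screening hits for modulation of myocardial damage; cell death induced by hydrogen peroxide oxidative stress; compound pretreatment for 60 min then peroxide exposure for 2 h; potency is for protecting the cells against peroxide damage rather than for killing them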
[1] = HepG2 cell cytotoxicity, dose response, cytotoxicity control for Shn3 inhibitor project, CellTiter-Glo, cherry-picked (AID 624134); assay type: functional, cell-based
[2] = control 3'UTR Renilla luciferase suppression, dose response, counter-screen for Shn3 inhibitor project, cell-based, Clone20-Shn3RL, cherry-picked (AID 624133); assay type: functional
Streptokinase A = molecular target: T1, Streptokinase A (Streptococcus pyogenes serotype M1, UniProt P10520); experiment: S. pyogenes streptokinase expression inhibitors, potency, dose response, plasminogen activation absorbance, OD405 (AID 1914); assay type: functional, Streptococcus pyogenes M1 GAS;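 note: secreted streptokinase activity via plasminogen activation per viability signal from cell pellet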
T1 sequence (P10520 whole entry): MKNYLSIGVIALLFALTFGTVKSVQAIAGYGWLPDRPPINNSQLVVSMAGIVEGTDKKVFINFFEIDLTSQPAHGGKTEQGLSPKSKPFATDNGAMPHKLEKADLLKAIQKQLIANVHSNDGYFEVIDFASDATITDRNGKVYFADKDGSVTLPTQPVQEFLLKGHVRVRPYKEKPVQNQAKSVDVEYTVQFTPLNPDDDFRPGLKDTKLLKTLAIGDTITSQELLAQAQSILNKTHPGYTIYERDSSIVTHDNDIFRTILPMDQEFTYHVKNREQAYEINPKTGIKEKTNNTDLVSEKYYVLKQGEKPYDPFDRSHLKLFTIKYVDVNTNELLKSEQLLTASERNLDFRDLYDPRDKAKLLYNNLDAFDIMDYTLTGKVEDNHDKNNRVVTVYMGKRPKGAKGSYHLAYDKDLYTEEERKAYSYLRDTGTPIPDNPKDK

Streptococcus = experiment: Group A Streptococcus viability loss, dose response, counter-screen for streptokinase expression inhibitor project, luminescence, BacTiterGlo (AID 1915); assay type: functional, organism-based;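 note: potency for reduction of bacterial viability or growth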
INS1 = experiment: beta cell apoptosis inhibitors, cytokine rescue, dose response, luminescence, retest (AID 449756); assay type: functional, cell-based; conditions: Rattus norvegicus;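 note: cell death triggered by IL-1 beta plus TNF-alpha plus IFN-gamma mixture; protective hits raise ATP signal compared with cytokine alone wells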
[3] = inhibitors of intracellular T. cruzi replication, confirmation, NIH3T3 host cells, beta-gal luminescence (AID 2044); assay type: functional, cell-based;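 note: intracellular parasites grown in NIH/3T3 mouse fibroblasts as host cells; luminescent beta-galactosidase reporter signal from transgenic T. cruzi replicating inside host cells; inhibitors lower the luminescence signal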
[4] = inhibitors of SNCA 5'UTR-driven reporter translation, confirmation, H4 neuroglioma cells, luminescence (AID 1988); assay type: functional, cell-based
[5] = cytotoxicity toward NIH3T3 fibroblasts, dose response, counter-screen, cell-based, ATP luminescence, mouse fibroblasts (AID 2010); assay type: functional;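 note: cells exposed to compound for about 90 hours before reading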
[6] = Shn3 3'UTR reporter inhibitors, dose response, cell-based, Clone20 osteoblasts, firefly luciferase, cherry-picked (AID 624132); assay type: functional;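 note: firefly luciferase luminescence from reporter carrying the Shn3 3'UTR in osteoblasts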
[7] = tested on: Streptococcus sp. 'group A'; experiment: growth inhibition of control SK(-) GAS strain, dose response, counter-screen for streptokinase expression inhibitor project, luminescence, kanamycin, BacTiterGlo, confirmation (AID 1900); assay type: functional, organism-based
[8] = inhibitors of firefly luciferase expression or activity, dose response, H4 neuroglioma cells, luminescence (AID 1990); assay type: functional, cell-based
[9] = Luminescence Cell-Based Dose Response HTS to Identify Inhibitors of 5'UTR Stem-Loop Driven Prion Protein mRNA Translation in H4 Neuroglioblastoma Cells. [Related pubchem assays: 1827 (Project Summary), 1813 (Primary HTS)]; assay type: functional
[10] = molecular target: Induced myeloid leukemia cell differentiation protein Mcl-1 (Homo sapiens, UniProt Q07820); assay type: functional
[11] = molecular target: FAD-linked sulfhydryl oxidase ALR (Homo sapiens, UniProt P55789); experiment: inhibitors of human ALR sulfhydryl oxidase, dose response, biochemical, H2O2 detection, luminescence, cherry-pick (AID 493248)
[12] = C. albicans growth with fluconazole, confirmation, fluorescence, retest (AID 2467); assay type: functional, cell-based
[13] = NIH-3T3 fibroblast cytotoxicity, dose response, cytotoxicity control, cell-based, fluorescence, Alamar Blue, secondary assay (AID 2327); assay type: functional;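 note: NIH-3T3 mouse fibroblasts cultured with fluconazole at 8 µg/mL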
[14] = molecular target: T2, Heat shock factor protein 1 (Mus musculus, UniProt P38532); experiment: HSF1 potentiators in luciferase reporter cells, confirmation, cell-based, NIH3T3, luminescence, dose retest (AID 435004); assay type: functional;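 note: stress induced by proteasome inhibitor MG132 added 30 min after compound; luciferase reporter driven by HSF1 response element in NIH3T3 cells; actives raise luminescence as potentiators of the MG132 stress response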
T2 sequence (P38532 whole entry): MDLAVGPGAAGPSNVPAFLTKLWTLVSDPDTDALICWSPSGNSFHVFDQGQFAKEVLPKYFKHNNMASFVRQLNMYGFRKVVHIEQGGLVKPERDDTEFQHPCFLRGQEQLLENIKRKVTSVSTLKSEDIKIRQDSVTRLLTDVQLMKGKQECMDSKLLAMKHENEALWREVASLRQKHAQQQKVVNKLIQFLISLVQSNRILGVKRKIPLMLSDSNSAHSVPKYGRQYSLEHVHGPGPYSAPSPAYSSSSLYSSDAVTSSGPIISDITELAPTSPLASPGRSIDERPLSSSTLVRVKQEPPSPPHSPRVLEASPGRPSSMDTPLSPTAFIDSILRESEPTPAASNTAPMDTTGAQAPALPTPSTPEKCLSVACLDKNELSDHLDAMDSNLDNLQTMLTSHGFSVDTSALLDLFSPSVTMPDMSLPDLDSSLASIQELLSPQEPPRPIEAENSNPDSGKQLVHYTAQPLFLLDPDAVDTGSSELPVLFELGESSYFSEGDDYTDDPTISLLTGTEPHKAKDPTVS

Cytochrome P450 2C19 = Cytochrome P450 2C19 (Homo sapiens, UniProt P33261); experiment: Cytochrome panel assay with activity outcomes. Panel member name: p450-cyp2c19 Compounds with AC50 equal or less than 10 uM are considered active; assay type: functional; conditions: read-out: AC50
Cytochrome P450 1A2 = molecular target: T3, Cytochrome P450 1A2 (Homo sapiens, UniProt P05177);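 note: PubChem cytochrome P450 panel assay, CYP1A2 panel member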
T3 sequence (P05177 whole entry): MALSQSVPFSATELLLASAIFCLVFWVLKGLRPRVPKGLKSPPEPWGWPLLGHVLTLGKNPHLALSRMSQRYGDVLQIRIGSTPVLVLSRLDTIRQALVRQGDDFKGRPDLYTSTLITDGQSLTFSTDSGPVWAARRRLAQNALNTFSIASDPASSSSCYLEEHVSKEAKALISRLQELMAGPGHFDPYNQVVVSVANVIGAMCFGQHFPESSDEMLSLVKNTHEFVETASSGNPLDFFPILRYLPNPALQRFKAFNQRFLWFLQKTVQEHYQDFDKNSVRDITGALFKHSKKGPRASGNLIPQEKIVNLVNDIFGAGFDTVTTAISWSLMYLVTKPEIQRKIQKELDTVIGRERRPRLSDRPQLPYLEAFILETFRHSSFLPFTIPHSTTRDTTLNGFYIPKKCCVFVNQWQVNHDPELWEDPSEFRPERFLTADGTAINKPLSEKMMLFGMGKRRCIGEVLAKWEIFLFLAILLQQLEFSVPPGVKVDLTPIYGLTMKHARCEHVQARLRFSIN

Cytochrome P450 3A4 = Cytochrome P450 3A4 (Homo sapiens, UniProt P08684);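 note: CYP3A4 tested as one member of a cytochrome P450 panel screen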
Cytochrome P450 2C9 = Cytochrome P450 2C9 (Homo sapiens, UniProt P11712)
Nonstructural protein 1 = Nonstructural protein 1 (Influenza A virus, UniProt Q194T2); assay type: functional, Influenza A virus (A/California/07/2009(H1N1))
[15] = inhibitors of clade B AD8 Env fusion, dose response, cell-based, cherry-pick (AID 652062); assay type: functional;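 note: luciferase signal from cell-cell fusion driven by HIV-1 clade B AD8 Env; potency is for inhibitors of fusion seen as a drop in luminescence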
[16] = ZM109 Env clade C HIV-1 fusion inhibitors, dose response, HeLa effector, CEM target cells, luciferase, cherry-pick (AID 652058); assay type: functional, cell-based
[17] = intracellular Trypanosoma cruzi inhibitors in host cells – cell-based, plate reader, cherry-pick samples, set 3, dose response (AID 651818); assay type: functional;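 note: compounds incubated with infected cells for about four days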
[18] = inhibitors of HIV Env-driven cell fusion, dose response, cherry-pick (AID 652057); assay type: functional, cell-based

Induced myeloid leukemia cell differentiation protein Mcl-1, sequence (Q07820 whole entry): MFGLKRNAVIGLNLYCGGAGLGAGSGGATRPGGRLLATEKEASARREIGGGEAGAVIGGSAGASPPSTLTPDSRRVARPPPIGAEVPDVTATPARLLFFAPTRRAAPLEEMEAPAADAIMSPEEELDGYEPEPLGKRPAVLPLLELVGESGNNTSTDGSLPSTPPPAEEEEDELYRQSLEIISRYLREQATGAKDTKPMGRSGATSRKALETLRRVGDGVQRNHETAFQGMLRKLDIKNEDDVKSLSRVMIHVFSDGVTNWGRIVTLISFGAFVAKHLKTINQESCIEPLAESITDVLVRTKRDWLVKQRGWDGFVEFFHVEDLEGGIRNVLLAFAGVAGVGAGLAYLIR
FAD-linked sulfhydryl oxidase ALR, sequence (P55789 whole entry): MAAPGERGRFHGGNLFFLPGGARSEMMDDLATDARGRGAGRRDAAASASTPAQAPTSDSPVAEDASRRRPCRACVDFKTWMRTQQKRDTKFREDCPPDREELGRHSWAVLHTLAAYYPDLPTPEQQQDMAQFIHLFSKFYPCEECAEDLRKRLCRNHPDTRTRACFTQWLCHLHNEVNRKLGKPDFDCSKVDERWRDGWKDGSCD
Cytochrome P450 2C9, sequence (P11712 whole entry): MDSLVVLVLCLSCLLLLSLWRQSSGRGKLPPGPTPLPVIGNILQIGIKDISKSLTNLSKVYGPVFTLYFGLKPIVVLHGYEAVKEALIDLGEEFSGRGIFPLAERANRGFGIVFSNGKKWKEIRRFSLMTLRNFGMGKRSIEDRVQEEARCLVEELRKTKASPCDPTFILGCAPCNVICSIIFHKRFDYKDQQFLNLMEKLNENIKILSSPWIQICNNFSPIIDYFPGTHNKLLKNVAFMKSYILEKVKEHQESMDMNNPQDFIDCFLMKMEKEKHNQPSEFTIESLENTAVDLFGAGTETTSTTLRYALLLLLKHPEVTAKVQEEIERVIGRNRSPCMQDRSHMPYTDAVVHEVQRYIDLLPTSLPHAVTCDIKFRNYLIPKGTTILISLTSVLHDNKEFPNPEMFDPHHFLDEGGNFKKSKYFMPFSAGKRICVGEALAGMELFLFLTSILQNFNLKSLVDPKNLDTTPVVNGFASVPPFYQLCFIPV
Cytochrome P450 2C19, sequence (P33261 whole entry): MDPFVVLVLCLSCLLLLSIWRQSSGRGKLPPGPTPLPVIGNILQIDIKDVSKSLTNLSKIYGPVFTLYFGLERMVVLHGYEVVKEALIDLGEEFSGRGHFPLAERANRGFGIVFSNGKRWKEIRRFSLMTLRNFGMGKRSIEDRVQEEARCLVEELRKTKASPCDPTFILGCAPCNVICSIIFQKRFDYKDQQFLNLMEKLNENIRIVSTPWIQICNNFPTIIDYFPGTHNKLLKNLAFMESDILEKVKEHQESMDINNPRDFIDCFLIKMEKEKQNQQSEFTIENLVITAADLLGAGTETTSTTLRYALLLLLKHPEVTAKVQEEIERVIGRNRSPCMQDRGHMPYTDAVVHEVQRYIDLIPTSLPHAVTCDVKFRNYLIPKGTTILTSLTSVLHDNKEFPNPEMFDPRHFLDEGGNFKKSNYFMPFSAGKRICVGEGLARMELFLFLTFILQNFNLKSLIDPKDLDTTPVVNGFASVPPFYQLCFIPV
Nonstructural protein 1, sequence (Q194T2 whole entry, the tested form may be a part): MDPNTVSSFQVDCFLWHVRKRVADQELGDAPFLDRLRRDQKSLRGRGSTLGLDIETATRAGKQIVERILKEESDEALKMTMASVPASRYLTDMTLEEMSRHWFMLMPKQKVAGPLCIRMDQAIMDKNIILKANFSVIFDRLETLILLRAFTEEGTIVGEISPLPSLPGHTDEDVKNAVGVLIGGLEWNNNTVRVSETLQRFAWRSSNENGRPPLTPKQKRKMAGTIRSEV
Cytochrome P450 3A4, sequence (P08684 whole entry): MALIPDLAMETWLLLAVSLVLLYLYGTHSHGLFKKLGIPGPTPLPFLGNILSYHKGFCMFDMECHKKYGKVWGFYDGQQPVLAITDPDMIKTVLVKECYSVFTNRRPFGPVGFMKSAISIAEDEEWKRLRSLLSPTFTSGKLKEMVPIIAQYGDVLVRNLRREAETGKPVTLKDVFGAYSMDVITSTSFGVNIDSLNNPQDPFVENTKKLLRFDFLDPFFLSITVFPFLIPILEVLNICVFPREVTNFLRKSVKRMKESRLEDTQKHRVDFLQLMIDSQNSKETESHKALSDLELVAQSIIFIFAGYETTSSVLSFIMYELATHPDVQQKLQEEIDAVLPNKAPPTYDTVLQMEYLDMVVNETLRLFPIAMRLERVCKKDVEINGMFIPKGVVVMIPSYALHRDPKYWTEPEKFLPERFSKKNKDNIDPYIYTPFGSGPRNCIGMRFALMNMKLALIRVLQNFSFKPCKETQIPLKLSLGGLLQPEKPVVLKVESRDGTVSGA

CC(=O)NCCNc1nc2c(-c3ccccc3)nnn2c2ccccc12
IC50 (H9c2): > 79 µM (inactive)

Cc1ccc(NC(=O)CN(C)C(=O)COc2cc(F)ccc2[N+](=O)[O-])cc1
AC50 [1]: > 70 µM (inactive) | AC50 [2]: 16.2 µM (active)

COc1cc(C)c(C(=O)CC(=O)c2c(C)cc(OC)cc2C)c(C)c1
EC50 (Streptokinase A): 68.7 µM (active) | EC50 (Streptococcus): > 150 µM (not active) | AC50 (INS1): 8.81 µM (active) | AC50 [1]: > 70 µM (inactive) | EC50 [3]: 2.67 µM (active) | EC50 [4]: > 120 µM (not active) | EC50 [5]: 6.5 µM (active) | AC50 [6]: 7.4 µM (active) | EC50 [7]: 3.96 µM (active) | EC50 [8]: 10.7 µM (active) | EC50 [9]: 73.2 µM (active) | AC50 [2]: 21.8 µM (active)

CN(C)C1=NC[C@H](Cc2ccccc2)N1CCCCc1ccccc1
AC50 [1]: 58.9 µM (active) | AC50 [6]: 8.01 µM (active) | AC50 [2]: 4.5 µM (active)

Cc1cc(C(=O)COc2ccccc2C(N)=O)c(C)n1C
IC50 (H9c2): > 79 µM (inactive)

Cc1nn(Cc2ccc(F)cc2)c2sc(C(=O)Nc3ccc(N4CCOCC4)cc3N3CCOCC3)cc12
IC50 [10]: 2.73 µM (not active)

O=C(Nc1ccc(N2CCCCC2)cc1)c1cccnc1
AC50 [11]: 21.6 µM (active)

Cc1nnc2ccc(-c3cccc(NC(=O)c4ccc(Cl)nc4)c3)nn12
IC50 (H9c2): > 79 µM (inactive)

O=C1CCCN1CCCNc1c([N+](=O)[O-])nn(-c2ccc(Cl)cc2)[n+]1[O-]
EC50 [12]: > 38 µM (not active) | EC50 [3]: 0.562 µM (active) | EC50 [5]: > 60 µM (inconclusive) | EC50 [13]: 17 µM (active) | EC50 [14]: 26.5 µM (active)

CCN(c1ccc(NC(=O)COC(=O)c2cccs2)cc1)C(C)C
IC50 [10]: 1.4 µM (not active)

CCOc1ccc(C(=O)Nc2cccc(-c3nc4cccnc4o3)c2)cc1Cl
IC50 (H9c2): > 79 µM (inactive) | AC50 (Cytochrome P450 2C19): 14.1 µM (inconclusive) | AC50 (Cytochrome P450 1A2): 5.01 µM (inconclusive) | AC50 (Cytochrome P450 3A4): 6.31 µM (inconclusive) | AC50 (Cytochrome P450 2C9): 14.1 µM (inconclusive)

Cc1ccc(N2CCN(C(=O)N3CCCC3)CC2)cc1Cl
AC50 [11]: 27.2 µM (active)

COc1cnn(-c2ccccc2)c(=O)c1SCc1ccc(Cl)cc1Cl
IC50 [10]: 1.26 µM (not active)

O=C(NCC(=O)N(Cc1cccs1)C(C(=O)NC1CCCCC1)c1ccco1)c1ccco1 (centres undefined)
IC50 (H9c2): 7.48 µM (active)

O=S(=O)(Nc1ccc(N2CCCCC2)cc1)c1cccc2cccnc12
AC50 [11]: 0.723 µM (active)

Oc1cc(-c2cccnc2)cc2cccnc12
AC50 [1]: 10.9 µM (active) | AC50 [6]: 9.27 µM (active) | IC50 (Nonstructural protein 1): 15.6 µM (active) | AC50 [2]: 4.04 µM (active)

CCOC(=O)c1c(NC(=O)C2c3ccccc3Oc3ccccc32)sc(C(C)=O)c1C
AC50 [1]: 61.5 µM (active) | AC50 [6]: 4.67 µM (active) | AC50 [2]: 13.6 µM (active)

CC(=O)c1c(C)[nH]c(C(=O)OCC(=O)Nc2c(C)cccc2C)c1C
AC50 [15]: 3.02 µM (active) | AC50 [16]: 0.745 µM (active)

O=C1CSC(c2ccccn2)N1c1ccccc1 (centres undefined)
AC50 [11]: 0.225 µM (active)

C[C@H](CO)N1C[C@H](C)[C@@H](CN(C)Cc2ccc(Cl)c(Cl)c2)Oc2c(NC(=O)c3ccncc3)cccc2C1=O
AC50 [17]: 0.08 µM (active)

CC(=O)N1CCN=C1SCc1cccc(F)c1
AC50 [11]: 6.74 µM (active)

O=C1Nc2cnc(Cl)nc2Nc2ccccc21
IC50 (H9c2): 18.7 µM (active)

CC(C)C[C@H]1CNC(=S)N1CC1CCN(CC2CCC(C(C)(C)C)CC2)CC1 (some centres undefined)
AC50 [1]: 21.5 µM (active) | AC50 [6]: 4.05 µM (active) | AC50 [2]: 4.48 µM (active)

CCOC(=O)c1cc2c(=O)n3cccc(C)c3nc2n(CCCOC)/c1=N\C(=O)c1cccnc1
IC50 (H9c2): > 79 µM (inactive)

CS/C(=N\S(=O)(=O)c1ccccc1)c1ccccc1
IC50 (H9c2): > 79 µM (inactive)

C[C@H]1CN([C@@H](C)CO)C(=O)Cc2cc(N(C)C)ccc2O[C@H]1CN(C)Cc1ccc(C(=O)Nc2ccccc2N)cc1
AC50 [17]: 1.93 µM (active)

C[C@H](CO)N1C[C@H](C)[C@H](CN(C)Cc2ccc(Cl)c(Cl)c2)Oc2c(NC(=O)CCCCCC(=O)Nc3ccccc3N)cccc2C1=O
AC50 [17]: 1.65 µM (active)

C[C@H]1CN([C@@H](C)CO)C(=O)Cc2cc(NC(=O)C3CCCCC3)ccc2O[C@@H]1CN(C)Cc1ccc2c(c1)OCO2
AC50 [17]: 2.81 µM (active)

C[C@@H]1CCCCO[C@@H](CN(C)C(=O)Nc2ccc(C(F)(F)F)cc2)[C@@H](C)CN([C@H](C)CO)C(=O)c2cc(NC(=O)Nc3ccc(F)cc3)ccc2O1
AC50 [17]: 4.68 µM (active)

Cc1ccc(S(=O)(=O)Nc2ccc3c(c2)CC(=O)N([C@H](C)CO)C[C@@H](C)[C@@H](CN(C)S(=O)(=O)c2ccc(C)cc2)O3)cc1
AC50 [17]: 4.11 µM (active)

C[C@H](CO)N1C[C@H](C)[C@H](CN(C)C(=O)Nc2ccc(F)cc2)Oc2ncc(C#Cc3ccc(C(F)(F)F)cc3)cc2C1=O
AC50 [17]: 2.59 µM (active)

COc1ccc([Si](C)(C)[C@@H]2[C@@H](CCO)O[C@]3(C(=O)N4c5c(cc(OC)cc53)C(C)=CC4(C)C)[C@H]2C)cc1
AC50 [15]: 16.8 µM (active) | AC50 [16]: 17.2 µM (active) | AC50 [18]: 11.8 µM (active)

C[C@@H]1CN([C@H](C)CO)C(=O)Cc2cc(NC(=O)Nc3ccc(C(F)(F)F)cc3)ccc2O[C@@H]1CN(C)Cc1ccncc1
AC50 [17]: 2.05 µM (active)

C[C@@H]1CN([C@H](C)CO)C(=O)Cc2cc(NC(=O)Nc3ccc(C(F)(F)F)cc3)ccc2O[C@H]1CN(C)Cc1ccc(C(F)(F)F)cc1
AC50 [17]: 6.59 µM (active)

Cc1noc(C)c1S(=O)(=O)N(C)C[C@@H]1Oc2ccc(NC(=O)NC3CCCCC3)cc2CC(=O)N([C@@H](C)CO)C[C@@H]1C
AC50 [15]: 5.37 µM (active) | AC50 [16]: 7.36 µM (active) | AC50 [18]: 9.11 µM (active)
